The target of one assay is bovine arginase (B-ARG). More on the design: method as in PMID 27690022. The conditions noted are these: cited from earlier work.
In assay [1] the target is T1, Leishmania amazonensis recombinant arginase (L-ARG) (Leishmania amazonensis, UniProt O96394). Description: Arginase inhibition test, recombinant L-ARG (urea, Berthelot method). More on the design: Emax: dose or concentration left out as unconfirmed. The format is biochemical. Here is the method:
(§1) Recombinant L-ARG was expressed and purified as previously described. Briefly, Escherichia coli, containing arginase gene cloned in plasmid DNA, was grown in SOB (Super Optimal Broth) medium at 37 °C until it reached absorbance 0.6 at 600 nm. Then the recombinant L-ARG expression was induced with a final concentration of IPTG (isopropyl β-D-1-thiogalactopyranoside) 1 mM and MnSO4 10 mM for 3 h. The cells were harvested and lysed in 1 mL of buffer A (MOPS 100 mM, pH 7,2, NaCl 500 mM) containing PMSF (phenylmethanesulfonyl fluoride) 1 mM and 10% of CelLytic™ B. After lysis, the homogenate was centrifuged at 12,000× g for 10 min. Arginase in the supernatant was purified as previously described.
(§2) A stock solution (70 mM) was prepared in DMSO and stored at −20 °C for each compound just before the experiment. The inhibitory test was performed with 50 mM of L-arginine (pH 9.5), 50 mM CHES buffer (pH 9.5), and enzyme at 5 nM. The sample was incubated in a water bath at 37 °C for 15 min. Urea was quantified according to the Berthelot method, using commercial reagents. Briefly, the catalytic activity of the arginase reaction was stopped by transferring 2 μL of the reaction mixture into 150 μL of reagent I (20 mM phosphate buffer, pH 7, containing 60 mM Salicylate, 1 mM sodium nitroprusside, and >500 IU of urease). This mixture was incubated at 37 °C for 5 min. Next, 150 μL of reagent II (sodium hypochlorite 10 mM and NaOH 150 mM) was added, and the samples were incubated at 37 °C for 5 min. Measurement was taken at 600 nm using an Epoch 2 microplate reader (BioTek Instruments, Inc.). Two independent experiments were performed in triplicate until a coefficient of non-linear regression R^2 ≥ 0.95 was obtained. The sigmoidal model (log IC50) was used to determine IC50 and maximum effect (Emax) in GraphPad-Prism 6.01 software for Windows (San Diego, CA, USA).

Assay [2] concerns Leishmania amazonensis recombinant arginase (L-ARG). The description is as above. The conditions noted are these: for Selective Index: L-ARG over B-ARG (bovine IC50 vs L. amazonensis IC50). More on the design: Emax: dose or concentration left out as unconfirmed. It is filed as biochemical. As to the method:
as §1, §2

Assay [3] concerns the target T1, Leishmania amazonensis recombinant arginase (L-ARG). Put plainly: Determination of Ki, Kis and mechanism of inhibition of L-ARG (Dixon and Cornish-Bowden plots). It is filed as biochemical. Particulars: for Mode of Inhibition: L-ARG; for Ki / Kis: L-arginine 25, 50, 100 mM, pH 9.5. Here is the method:
All reactions were performed in 50 mM CHES buffer, pH 9.5, containing variable concentrations of the substrate L-arginine (25, 50, and 100 mM) at pH 9.5. Inhibitors were tested at three different concentrations close to the IC50. All reactions were performed in triplicate in two independent experiments. Urea was quantified according to the Berthelot method using commercial reagents as previously described. The constant Ki was determined for competitive and mixed inhibitors, and Ki’ was determined uncompetitive and mixed using a Dixon and Cornish–Bowden plots. For non-competitive inhibitors, Ki and K’i values were the same, and y = 0 was determined to obtain that value.

Assay [4] deals with L. amazonensis promastigotes. Put plainly: Promastigote growth inhibition (MTT). The format is cell-based. The conditions noted are these: Leishmania amazonensis, 78 h. As to the method:
Promastigote forms of the strain MHO were inoculated initially in the concentration of 5 × 10^5 parasites/mL in M199 medium (Life Technologie, Carlsbad, CA, USA), pH 7.4, supplemented with 10% of fetal bovine serum, (50 µg/mL) streptomycin, and (100 U) penicillin at 24 °C. Cells were grown until they reached the stationary phase. After this, 998 μL of the culture at 5.0 × 10^5 cells/mL was incubated with 2 μL of the inhibitors (50 to 0.0005 mM) dissolved in DMSO to obtain final concentrations of 100 to 0.001 μM. Amphotericin B was used as a control of the cell growth inhibition, in a concentration varying from 60 to 0.0006 μM dissolved in DMSO. […] After this inhibition period, the surviving cells were washed twice with HBSS (Gibco), centrifuged at 2000× g for 10 min, and supernatant was removed. To verify the parasite viability, over the pellet of cells about 1000 µL of M199 medium content was added, with 5 mg/mL of MTT (3-(4,5-dimethylthiazol-2-yl)-2, 5-diphenyltetrazolium bromide, a tetrazole) (Sigma-Aldrich, St. Louis, MO, USA). Surviving parasites were exposed to MTT during 12 h at 34 °C in a CO2 chamber. After this period, the cells were centrifuged for 10 min at 2000× g and the supernatant was removed. Formazan crystals that were formed in the cells were dissolved with DMSO, the absorbance was read using an Epoch 2 Microplate Spectrophotometer at 600 nm.

The target of a further assay is human arginase (h-ARG). More on the design: method as in PMID 27690022. Particulars: cited from earlier work.
The target in assay [5] is T1, Leishmania amazonensis recombinant arginase (L-ARG). On the set-up: method as in PMID 30216691. The conditions noted are these: Table 2, unit inferred; read-out: IC50 inhibition of arginase, L. amazonensis; cited from earlier work.
[6] abbreviates: Table 2, unit inferred, read-out: IC50 inhibition of arginase, Bovine.
Where [7] appears, read: 50 mM L-arginine, pH 9.5, 37 °C, 15 min, read-out: IC50 (half inhibitory activity), L-ARG.
Setting [8] is: Table 2, unit inferred, read-out: IC50 inhibition of arginase, L. amazonensis.
Setting [9] is: read-out: Emax (maximal inhibitory activity).

“And” between values parts separate entries of the source, which are not always exact repeats. Equal values may be shown once. Read-outs that look alike come from different tables or passages of the source.

As usually defined, the IC50 is the concentration needed to halve the response being measured. One may read the Emax as the maximal effect, on the per cent scale that the assay sets. As usually defined, the Ki is a measure of affinity in units of concentration, obtained from inhibition or displacement. On to `O=C(/C=C/c1ccc(O)c(O)c1)NCCc1ccc(O)cc1` [Compound 6], for which the IC50 on bovine arginase (B-ARG) (setting [6]) was 22.1 ± 1.6 µM; in assay [1] (setting [7]), 5.6 ± 0.4 µM; in assay [1] (setting [8]), 5.6 ± 0.4 µM. In addition, the Emax at 100 µM in assay [1] (setting [9]) is 82 ± 2%. The “Selective Index” value in assay [2] amounted to 4. For the same molecule, in assay [3], the “Mode of Inhibition” value is “Competitive”. Also, the Ki in assay [3] turned out to be 4.4 ± 1.1 µM.
As for `COc1cc(/C=C/C(=O)NCCc2ccc(O)c(O)c2)ccc1O` [Compound 12], on bovine arginase (B-ARG) (setting [6]), the IC50 was 198.7 ± 1.4 µM. In assay [1] (setting [7]), the IC50 was 6.5 ± 1.4 µM. Besides, the IC50 in assay [1] (setting [8]) was 6.5 ± 1.4 µM. In addition, in assay [1] (setting [9]), the Emax at 100 µM stood at 75 ± 2%. Moreover, in assay [2], the “Selective Index” value was determined as 31. In assay [3], the “Mode of Inhibition” value is given as “Noncompetitive”, the Ki came out at 9.6 ± 0.7 µM and the Kis stood at 9.6 ± 0.7 µM.
On to `O=C(/C=C/c1ccc(O)c(O)c1)O[C@@H]1C[C@](O)(C(=O)O)C[C@@H](O)[C@H]1O` [Chlorogenic acid, reference compound], for which the IC50 on bovine arginase (B-ARG) (setting [6]) was 10.6 ± 1.6 µM; at bovine arginase (B-ARG) (read-out: IC50, bovine arginase), around 10 µM. Moreover, the “Selective Index” value in assay [2] was found to be 1.3.
For `O=C(/C=C/c1ccc(O)c(O)c1)NCCc1ccccc1` [CAPA, caffeic acid phenethyl amide], the IC50 in assay [4] is 82.6 µM; on human arginase (h-ARG), 60.3 µM and 60 µM; at bovine arginase (B-ARG) (setting [6]), 6.9 ± 1.3 µM; in assay [1] (setting [7]) it was 6.9 ± 0.7 µM; in assay [1] (setting [8]), 6.9 ± 0.7 µM. For the same molecule, in the assay with bovine arginase (B-ARG), the “mode of inhibition of bovine arginase” value is “competitive inhibition”. Moreover, the Emax at 100 µM in assay [1] (setting [9]) came out at 79 ± 1%. The “potency against L-ARG relative to human arginase” value in assay [2] (L-ARG IC50 vs human arginase IC50) stood at 9 fold. Moreover, the “Selective Index” value in assay [2] was 1. In addition, the “Mode of Inhibition” value in assay [3] is listed as “Competitive”. Also, the Ki in assay [3] turned out to be 3.9 ± 1 µM.
Take `COc1cc(/C=C/C(=O)NCCc2ccc(O)c(O)c2)cc(OC)c1OC` [Compound 14]: the IC50 at bovine arginase (B-ARG) (setting [6]) is 193.6 ± 1.4 µM; in assay [1] (setting [7]) it was 2.4 ± 0.9 µM; in assay [1] (setting [8]), 2.4 ± 0.9 µM. The Emax at 100 µM in assay [1] (setting [9]) was 81 ± 2%. Also, the “Selective Index” value in assay [2] was determined as 81. In addition, the “Mode of Inhibition” value in assay [3] is listed as “Competitive”. Also, in assay [3], the Ki amounted to 1.2 ± 0.3 µM.
On to `O=C(/C=C/c1ccc(O)cc1)NCCc1ccc(O)c(O)c1` [Compound 13], for which the values for the IC50 (at bovine arginase (B-ARG) (setting [6]); in assay [1] (setting [7]); in assay [1] (setting [8])) were 170.4 ± 1.7 µM, 2.5 ± 0.2 µM and 2.5 ± 0.2 µM, respectively. For the same molecule, the Emax at 100 µM in assay [1] (setting [9]) was found to be 82 ± 1%. Besides, the “Selective Index” value in assay [2] stood at 68. In addition, the “Mode of Inhibition” value in assay [3] is on record as “Competitive”. Also, the Ki in assay [3] turned out to be 1.6 ± 0.2 µM.
As to `O=C(/C=C/c1ccccc1)NCCc1ccc(O)c(O)c1` [Compound 15], on bovine arginase (B-ARG) (setting [6]), the IC50 is 39.3 ± 1.4 µM. Besides, in assay [1] (setting [8]), the IC50 is 1.3 ± 0.1 µM. Also, the Emax in assay [1] (setting [9]) was 80 ± 1%. The “Selective Index” value in assay [2] was determined as 30. Further, in assay [3], the “Mode of Inhibition” value is given as “Mixed”, the Ki stood at 1.4 ± 0.2 µM and the Kis worked out at 5 ± 1 µM.
As for `O=C(NCCc1ccc(O)cc1)c1ccc(O)c(O)c1` [Compound 17], the 50% inhibitory concentration (IC50) at bovine arginase (B-ARG) (setting [6]) is 175.3 ± 1.5 µM; in assay [1] (setting [7]), 17.8 µM and 18 µM; in assay [1] (setting [8]), 18 ± 3 µM. Moreover, the Emax at 100 µM in assay [1] (setting [9]) came out at 68 ± 2%. Further, in assay [2], the “Selective Index” value amounted to 10. Moreover, the “Mode of Inhibition” value in assay [3] is on record as “Competitive”. In assay [3], the Ki came out at 11.4 ± 0.7 µM.
`O=C(/C=C/c1ccc(O)c(O)c1)NCCc1ccc(O)c(O)c1` [Compound 11]: the results for the IC50 (on bovine arginase (B-ARG) (setting [6]); in assay [1] (setting [7]); in assay [1] (setting [8])) were 115 ± 1.3 µM, 1.8 ± 0.1 µM and 1.8 ± 0.1 µM, respectively. In addition, the Emax at 100 µM in assay [1] (setting [9]) is 81 ± 2%. Besides, the “Selective Index” value in assay [2] is recorded as 64. For the same molecule, the “Mode of Inhibition” value in assay [3] was “Uncompetitive”. The Kis in assay [3] is 2.5 ± 0.2 µM.
Take `COC(=O)C(Cc1ccc(O)c(O)c1)NC(=O)/C=C/c1ccc(O)c(O)c1` (centres unmarked) [Compound 18]: the IC50 on bovine arginase (B-ARG) (setting [6]) is 41.9 ± 1.3 µM; in assay [1] (setting [7]) it was 4 ± 1 µM; in assay [1] (setting [8]) it was 4 ± 1 µM. Further, in assay [1] (setting [9]), the Emax at 100 µM stood at 89 ± 3%. Besides, the “Selective Index” value in assay [2] stood at 10. Further, the “Mode of Inhibition” value in assay [3] is given as “Mixed”. In addition, in assay [3], the Ki is 3.9 ± 0.4 µM. Also, in assay [3], the Kis amounted to 27 ± 8 µM.
For the molecule `O=C(O)/C=C/c1ccc(O)c(O)c1` [Caffeic acid, reference compound], the figures for the 50% inhibitory concentration (IC50) (on bovine arginase (B-ARG) (setting [6]); in assay [5]) were 86.7 ± 8 µM and 1.5 ± 0.3 µM, respectively. Moreover, the “Selective Index” value in assay [2] turned out to be 58.
For the molecule `COC(=O)C(CS)NC(=O)/C=C/c1ccc(O)c(O)c1` (centres unmarked) [Compound 19], the IC50 at bovine arginase (B-ARG) (setting [6]) is 37 ± 1.3 µM. In addition, the IC50 in assay [1] (setting [7]) amounted to 9 ± 1 µM. In assay [1] (setting [8]), the IC50 is 9 ± 1 µM. In addition, the Emax at 100 µM in assay [1] (setting [9]) worked out at 90 ± 3%. In assay [2], the “Selective Index” value turned out to be 4. In addition, in assay [3], the “Mode of Inhibition” value is reported as “Mixed”, the Ki worked out at 6.6 ± 0.3 µM and the Kis was found to be 28 ± 4 µM.

(Values after publication PMC7696938, “Cinnamides Target Leishmania amazonensis Arginase Selectively” (Molecules, 2020).)
